This is an account of results in patent publication US7034042B2, “N-(4-aryloxypiperidin-1-ylalkyl) cinnamic amides as CCR33 receptor antagonists” (Novartis AG, priority 2000, dated 2006).

The assay addresses T1, human CCR-3 (Homo sapiens, UniProt P51677).
T1 construct: expressed in transfected cells; membranes
T1 sequence (P51677 1-355): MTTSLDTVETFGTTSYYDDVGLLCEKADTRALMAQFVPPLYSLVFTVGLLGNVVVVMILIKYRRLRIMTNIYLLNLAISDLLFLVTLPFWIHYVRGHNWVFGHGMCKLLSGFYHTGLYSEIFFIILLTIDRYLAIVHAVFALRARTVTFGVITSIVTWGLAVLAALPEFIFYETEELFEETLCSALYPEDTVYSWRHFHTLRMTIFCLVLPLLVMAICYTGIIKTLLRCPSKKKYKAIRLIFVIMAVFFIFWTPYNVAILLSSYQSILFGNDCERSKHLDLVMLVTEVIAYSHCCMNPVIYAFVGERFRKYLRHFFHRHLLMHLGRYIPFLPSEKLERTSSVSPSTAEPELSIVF
Briefly: CCR-3 Binding Assay (inhibition of [125I]-human eotaxin binding, SPA). The settings on record: binding of [125I]-human eotaxin to membranes of RBL-2H3 cells stably expressing CCR3; 4 hours at room temperature. The procedure:
In this assay the effect of agents of the invention on the binding of human eotaxin to human CCR-3 is determined. Recombinant cells expressing human CCR-3 are captured by wheatgerm agglutinin (WGA) polyvinyltoluidene (PVT) SPA beads (available from Amersham), through a specific interaction between the WGA and carbohydrate residues of glycoproteins on the surface of the cells. [^125I]-human eotaxin (available from Amersham) binds specifically to CCR-3 receptors bringing the [^125I]-human eotaxin in close proximity to the SPA beads. Emitted â-particles from the [^125I]-human eotaxin excite, by its proximity, the fluorophore in the beads and produce light.
Preparation of Assay Buffer: 5.96 g HEPES and 7.0 g sodium chloride are dissolved in distilled water and 1M aqueous CaCl2 (1 mL) and 1M aqueous MgCl2 (5 mL) are added. The pH is adjusted to 7.6 with NaOH and the solution made to a final volume of 1 L using distilled water. 5 g bovine serum albumin and 0.1 g sodium azide are then dissolved in the solution and the resulting buffer stored at 4° C. A Complete™ protease inhibitor cocktail tablet (available from Boehringer) is added per 50 mL of the buffer on the day of use.
Preparation of Homogenisation Buffer: Tris-base (2.42 g) is dissolved in distilled water, the pH of the solution is adjusted to 7.6 with hydrochloric acid and the solution is diluted with distilled water to a final volume of 1 L. The resulting buffer is stored at 4° C. A Complete™ protease inhibitor cocktail tablet is added per 50 mL of the buffer on the day of use.
Preparation of membranes: Confluent rat basophil leukemia (RBL-2H3) cells stably expressing CCR3 are removed from tissue culture flasks using enzyme-free cell dissociation buffer and resuspended in phosphate-buffered saline. […]
The assay is performed in a final volume of 250 μL per well of an Optiplate (ex Canberra Packard). […] The resulting scintillations are counted using a Canberra Packard TopCount, each well being counted for 1 minute. […]

For orientation: IC50 means the point on the concentration scale where inhibition reaches its midpoint. Lower therefore signals greater potency in that assay. Turning to `COc1ccc(C#N)cc1/C=C/C(=O)NC(CO)CN1CCC(Oc2ccc(F)cc2)CC1` (stereo not drawn) [Example 1, (E)-3-(5-Cyano-2-methoxy-phenyl)-N-{2-[4-(4-fluoro-phenoxy)-piperidin-1-yl]-1-hydroxymethyl-ethyl}-acrylamide], the IC50 amounted to 0.016 µM.

The compound `COc1ccc(C#N)cc1/C=C/C(=O)N[C@H](CC(=O)N(C)CCO)CN1CCC(Oc2ccc(F)cc2)CC1` [Example 14, (E)-3-(5-Cyano-2-methoxy-phenyl)-N-((R)-2-[4-(4-fluoro-phenoxy)-piperidin-1-yl]-1-{[(2-hydroxy-ethyl)-methyl-carbamoyl]-methyl}-ethyl)-acrylamide] had an IC50 of 0.011 µM. As for `COc1ccc(C#N)cc1/C=C/C(=O)N[C@H](CNC(C)=O)CN1CCC(Oc2ccc(F)cc2)CC1` [Example 16, (E)-N-{(R)-1-(Acetylamino-methyl)-2-[4-(4-fluoro-phenoxy)-piperidin-1-yl]-ethyl}-3-(5-cyano-2-methoxy-phenyl)-acrylamide], the figure is 0.0028 µM.
